test: Human HepG2 cell viability assay in 384 well format; assay type: toxicity, cell-based; design: dose 125 nL, time 70.5 hour; cytotoxicity at 70.5 h: concentration not given beside the values; conditions: HepG2 cells, read-out: Inhibition

Compared with `CN(c1ccncn1)C1CC2(CCN(C(=O)Cc3cccs3)C2)C1` (stereo unspecified), `O=C(Cc1ccsc1)N1C[C@@H]2COC[C@]2(COc2cccnc2)C1` is higher in cytotoxicity at 70.5 h: -6.91% for the first, -6.1% for the second.

First: O=C(NCCCn1cccn1)NCC(c1ccco1)N1CCCC1 (stereo unspecified)
Second: Cc1nc(Nc2ccc(Cl)cn2)sc1C(=O)NCCCN1CCCCC1
The cytotoxicity at 70.5 h of the first is higher: -2.3% for the first, -3.37% for the second.

Compared with `CCOCCC(=O)NC(Cc1ccc(C)cc1)c1ccccn1` (stereo unspecified), `COc1cccc(CC(=O)NCC(Cc2ccc(F)cc2)C(N)=O)c1` (stereo unspecified) is lower in cytotoxicity at 70.5 h: 0.116% for the first, -4.64% for the second.

Compared with `CCc1nnc(CN(C)c2nc(C(C)C)nc3c2cnn3C)o1`, `CCc1nnc(CNC2CCCN(Cc3noc(C4CC4)n3)C2)o1` (stereo unspecified) is lower in cytotoxicity at 70.5 h: -5.57% for the first, -9.18% for the second.

Compared with `CCS(=O)(=O)CCN(C)C(=O)NC(C)c1ccc(C)s1` (stereo unspecified), `CCc1nc(CN(C)C(=O)c2cc(NC(C)=O)ccc2Cl)no1` is higher in cytotoxicity at 70.5 h: -5.27% for the first, 18.6% for the second.

Going from `Cc1cc(C(=O)N2CC[C@H]3C[C@H](c4ccncn4)O[C@@H]3C2)no1` to `O=C(c1cnccn1)N1CCCC(c2cccc(-n3ccnc3)n2)C1` (stereo unspecified), the cytotoxicity at 70.5 h falls from 12.7% to 11.1%.

First: Cc1ccc(NC2CCN(C(=O)c3ccco3)CC2)nn1
Second: Cc1ccc(CN2CCC[C@@H]3CN(C(=O)c4ccco4)C[C@@H]32)o1
The cytotoxicity at 70.5 h of the first is higher: 11.9% for the first, -9.58% for the second.

Compared with `O=C(NCCNc1ncccn1)N(Cc1ccc(F)cc1F)C1CC1`, `O=C(c1cc[nH]n1)N(Cc1ccc(F)cc1)CC1CC1` is higher in cytotoxicity at 70.5 h: -18.1% for the first, 0.0679% for the second.

First: COCC(=O)N1CCC2(CC1)CN(CC1CC1)c1ccc(F)cc12
Second: COCC1CC2(CCN(CC3CC3)CC2)CN1c1ncccn1 (stereo unspecified)
The cytotoxicity at 70.5 h of the first is higher: 2.37% for the first, -3.59% for the second.

First: O=C(NCc1ccc2c(c1)CCCO2)c1ccccc1C1CCNC1 (stereo unspecified)
Second: O=C(NCCc1nncn1C1CC1)C1(Cc2ccccc2)CCC1
The cytotoxicity at 70.5 h of the first is lower: -20.6% for the first, -1.53% for the second.

Compared with `CCc1noc(CN2CCCN(Cc3cccs3)CC2)n1`, `CCc1cc(N2CCC(N3CCSCC3)CC2)n2nccc2n1` is higher in cytotoxicity at 70.5 h: -11.1% for the first, -7.5% for the second.

First: O=C(c1ccncc1)N1C[C@@H]2OCCN(CCN3CCCC3)[C@@H]2C1
Second: CC1CN(C(=O)NCCn2ccnc2)CCO1 (stereo unspecified)
The cytotoxicity at 70.5 h of the first is lower: -4.2% for the first, -1.49% for the second.

First: COc1cccc2c1OCCCN(c1nc(N)nc3c1CCNC3)C2
Second: Cc1nn(C)c(Cl)c1C1CCCN1c1ncnc2c1CCC2 (stereo unspecified)
The cytotoxicity at 70.5 h of the first is lower: 12.6% for the first, 18% for the second.

Compared with `Cn1c(CO)cnc1SC(C(=O)NC1CC1)c1ccccc1` (stereo unspecified), `Cc1noc(C)c1CC(=O)N[C@@H]1CC[C@@H](Oc2ccccc2)[C@@H]1O` is higher in cytotoxicity at 70.5 h: -8.64% for the first, -3.35% for the second.

Going from `CCn1cnnc1CNC(=O)N1CCOCC1` to `Cc1nn(Cc2ccc(C(=O)NCCCN3CCOCC3)o2)c(C)c1Cl`, the cytotoxicity at 70.5 h rises from -13.2% to 24.8%.

Compared with `CN(Cc1ccco1)C[C@H]1OC[C@@H]2CCN(Cc3ccsc3)C[C@@H]21`, `CC1N(C)C(=O)COC12CCN(Cc1ccsc1)CC2` (stereo unspecified) is higher in cytotoxicity at 70.5 h: -7.38% for the first, 4.85% for the second.

Going from `Cc1n[nH]c(C)c1CCc1nc(C2CC2)n[nH]1` to `Cc1cc(CN2CCC(CNC(=O)c3ccc(O)c(Cl)c3)C2)[nH]n1` (stereo unspecified), the cytotoxicity at 70.5 h rises from -6.37% to -4.96%.

Going from `Cc1cccc(CN2CCC3(CC2)COC(COCC2CC2)C3)n1` (stereo unspecified) to `Cc1cc(N2CCC3(CCCN(C4CCOCC4)C3=O)C2)ccn1` (stereo unspecified), the cytotoxicity at 70.5 h rises from -6.77% to -4.29%.

Compared with `CCS(=O)(=O)N1CC(c2nc(-c3ccncc3)no2)C1`, `CS(=O)(=O)N1CCOC(CNC(=O)c2cccc(C#N)c2)C1` (stereo unspecified) is higher in cytotoxicity at 70.5 h: -2.55% for the first, 3.98% for the second.

Compared with `O=C(NCC(F)F)c1ccc(S(=O)(=O)NCCc2c[nH]cn2)cc1`, `CCCN(CC(=O)NC)C(=O)c1ccc(-c2nc(C)cs2)cc1` is lower in cytotoxicity at 70.5 h: -6.02% for the first, -10.1% for the second.

First: CCS(=O)(=O)Nc1cnn(Cc2cccc(F)c2)c1
Second: COCCNC(=O)c1nn(-c2cccc(C(C)C)c2)cc1O
The cytotoxicity at 70.5 h of the first is lower: -4.79% for the first, 41.1% for the second.

Going from `Cn1nccc1-c1cnc2n1CCC21CCN(C(=O)C2(C)CC2)CC1` to `O=C(NCC1CC1)C1CCC2(CCN(C(=O)c3cnccn3)CC2)O1` (stereo unspecified), the cytotoxicity at 70.5 h rises from -11% to 9.2%.

First: Cc1cccc(C)c1OCC(O)CNCc1c(C)nn(C)c1N(C)C (stereo unspecified)
Second: Cc1cc(-c2cccc(-c3ccn(CCCO)n3)c2)nc(N(C)C)n1
The cytotoxicity at 70.5 h of the first is higher: -4.45% for the first, -5.08% for the second.

Compared with `CC(C)NC(=O)N(C)C1CCN(c2ccccc2Cl)C1=O` (stereo unspecified), `CCOc1ccccc1N1CCN(C(=O)c2cc[nH]n2)CC1` is higher in cytotoxicity at 70.5 h: -21.1% for the first, 0.935% for the second.

First: CS(=O)(=O)NCC1CCCN(C(=O)Nc2cccc3ccccc23)C1 (stereo unspecified)
Second: O=C1NC2(CCCN(C(=O)CCn3cncn3)C2)Oc2ccccc21 (stereo unspecified)
The cytotoxicity at 70.5 h of the first is higher: -3.21% for the first, -4.04% for the second.

Going from `COc1ccccc1OCc1cc(C(=O)N2CCC(C(C)O)CC2)n[nH]1` (stereo unspecified) to `CC1(c2cc[nH]n2)CCN(C(=O)c2ccc(Cl)cc2)CC1`, the cytotoxicity at 70.5 h rises from -5.66% to -4.57%.

Going from `CCOCCN1CCN(CCOC)CC1C` (stereo unspecified) to `COCCN(C)CC1CCCN1S(=O)(=O)c1cc(C)oc1C` (stereo unspecified), the cytotoxicity at 70.5 h rises from -8.63% to -4.11%.

Going from `CNc1cc(C)nc(N2Cc3cnn(Cc4ccc(F)cc4)c3C2)n1` to `Cc1cc(NC2CCCN(Cc3ccc(F)cc3)C2)n2nc(C)cc2n1` (stereo unspecified), the cytotoxicity at 70.5 h falls from 11.4% to -0.0493%.

First: CN(C(=O)c1ccc[nH]1)C1CCC(NC(=O)OC(C)(C)C)CC1 (stereo unspecified)
Second: Cc1cnn(CC2CCCCN2C(=O)CN(C)C2CC2)c1 (stereo unspecified)
The cytotoxicity at 70.5 h of the first is lower: -17.5% for the first, 16.1% for the second.

First: Cc1ccc(OCC(=O)N(C)Cc2ccc(F)cc2)cn1
Second: CN(Cc1nc2ccccc2[nH]1)C(=O)CN(C)c1ccc(Cl)cn1
The cytotoxicity at 70.5 h of the first is lower: -8.48% for the first, 7.7% for the second.

Going from `CCc1cc(NCC(O)CN2CCCCC2)n2ncnc2n1` (stereo unspecified) to `CC(C)n1cc(S(=O)(=O)N2CCCCCC2)cn1`, the cytotoxicity at 70.5 h falls from 1.39% to -2.52%.

Going from `O=C(CC1CC1)N1Cc2nccn2CC(COc2cccnc2)C1` (stereo unspecified) to `Cn1cc(CCC(=O)N2C[C@H]3CC[C@@H]2CN(Cc2ccccc2)C3)cn1`, the cytotoxicity at 70.5 h rises from -14.7% to -5.6%.

Compared with `CC(C)c1cc(CN(C)C(=O)CN2CCNC2=O)no1`, `Cc1ccc(-c2nc(CN3CCCC(C(=O)N(C)C)C3)cs2)o1` (stereo unspecified) is lower in cytotoxicity at 70.5 h: 18.6% for the first, 1.88% for the second.

Compared with `COCCOC[C@]1(CNCc2ccc(OC)cc2)C[C@@H](O)[C@@H](O)C1`, `COCCn1ccc2cc(NC(C)=O)ccc21` is higher in cytotoxicity at 70.5 h: -7.9% for the first, -5.43% for the second.

Going from `CC(C)C(=O)N1CCCC12CCN(C(=O)c1ccno1)C2` (stereo unspecified) to `O=C1N(c2cccnc2)CCC12CCCN(Cc1cccnc1)C2` (stereo unspecified), the cytotoxicity at 70.5 h falls from -1.72% to -4.25%.

Going from `CC(O)CNC(=O)NCc1ccc(N2CCNC(=O)C2)cc1` (stereo unspecified) to `CC(CN1CCC2(CC1)N=C(c1cccnc1)NC2=O)c1ccccc1` (stereo unspecified), the cytotoxicity at 70.5 h falls from 2.26% to -7.3%.

Going from `Cc1csc(N2CCCN(c3cc(C)nc(C)c3C#N)CC2)n1` to `Cc1cc(-c2c(C)c(-c3cnn(C)c3)nc(N)c2C#N)oc1C`, the cytotoxicity at 70.5 h rises from -4% to 37.4%.

First: CN1CCN(C[C@@H]2CN(C(=O)NCC3CCCCC3)C[C@@H]2CO)CC1
Second: Cc1cc(C)n(C2CN(CC(=O)NC(C3CC3)C3CC3)C2)n1
The cytotoxicity at 70.5 h of the first is higher: 27.6% for the first, -3.88% for the second.

Going from `COC(=O)[C@@H]1Cc2ncn(C)c2CN1S(=O)(=O)c1cccs1` to `COCCc1noc(CNCC2CCCN2c2cccnn2)n1` (stereo unspecified), the cytotoxicity at 70.5 h rises from -1.34% to 2.33%.

Going from `Cc1ccccc1N1CC(C)N(Cc2ccc(C)c(F)c2F)CC1=O` (stereo unspecified) to `COc1cc(N2CCCC(c3nccn3Cc3ccncc3)C2)ncn1` (stereo unspecified), the cytotoxicity at 70.5 h falls from 5.81% to -6.57%.

`CC(=O)N1C[C@H](NC(=O)c2csc(C(C)C)c2)[C@@H](C(C)C)C1` showed a cytotoxicity at 70.5 h of 14.4%.
